Results on six compounds are retold here after patent publication US20070219208A1, “Methods for Treating Cancer” (priority 2006, published 2007).

“Also recorded” adds a separate entry of the source.

Data set [1] relates to MCF-7 breast cancer cells. Put plainly: MTT reduction cytotoxicity assay in MCF-7 cells. The settings on record: 48 h; for MCF-7 cell death (MTT assay) by isoprenylation inhibitors: 10-20 μM. On the procedure:
MTT Reduction Cytotoxicity Assay:
MTT is taken up by cells and is reduced to a colored formazon product that can be detected by spectrophotometry (max=562 nm). Reduction of MTT is dependent upon the mitochondrial respiratory function, and thus measures the relative number of viable cells in the culture. After the treatment was completed, MCF-7 cells were washed twice with DPBS and taken in a ml of MEM without FBS and incubated with 5 mg/ml MTT solution for 1 h at 37° C. Medium was removed and cells were solubilized in DMSO. The absorption was measured at 562 nm with reference at 630 nm.
We assessed the effectiveness of simvastatin and fluvastatin to induce cytotoxicity in MCF-7 cells. MCF-7 breast cancer cells were treated with fluvastatin or simvastatin at different concentrations (0.5-20 μM) for 24-48 h. The changes in the number of viable cells were determined using the MTT assay that monitors the intracellular conversion of MTT to formazon spectrophotometrically max=562 nm).

For data set [2], the system named is MCF-7 cells. Put plainly: Apoptosis by TUNEL assay. The format is cell-based. As to conditions: with simvastatin or fluvastatin 5-10 μM, 48 h, 1400 W 10 μM, sepiapterin 50 μM, mevalonate 20 μM. From the text:
Measurement of Apoptosis by TUNEL Assay:
The terminal deoxynucleotidyl transferase-mediated nick-end labeling (TUNEL) assay was used for microscopic detection of apoptosis (Kotamraju S, et al. J Biol Chem, 277:17179-87, 2002). This assay is based on labeling of 3′ free hydroxyl ends of the fragmented DNA with fluorescein-dUTP catalyzed by terminal deoxynucleotidyl transferase. Procedures were followed according to a commercially available kit (ApoAlert) from Clontech. […] The apoptotic cells were detected by fluorescence microscopy equipped with rhodamine and FITC filters. The quantification of apoptosis was performed using the Metamorph image analysis package.
Under these conditions, NO2^−/NO3^− levels were decreased (FIG. 4B). […] Further verification that iNOS is involved in […] NO was obtained from inhibition of geranylgeranylation and farnesylation. […] In contrast, FTI-277 (farnesylation inhibitor) and sepiapterin had no effect on NO2^−/NO3^− levels (FIG. 4C). […] In the TUNEL assay, cells were treated with simvastatin or fluvastatin (5-10 μM) for 48 h in the presence or absence of 1400 W (10 μM), sepiapterin (50 μM) or mevalonate (20 μM) and stained for TUNEL-positive cells as an index of DNA fragmentation monitored by fluorescence microscopy (original magnification, ×100). Photographs were taken for the overlaid images of propidium iodide-and FITC-stained cells (TUNEL-positive cells). Yellow and red denote apoptotic and nonapoptotic cells, respectively. We observed that the TUNEL positive staining was enhanced in statin-treated MCF-7 cells. […] Pretreatment with 1400 W or mevalonate caused a decrease in the TUNEL positive cells.

Data set [3] relates to MCF-7 cells. Put plainly: Cell cycle analysis by flow cytometry. The format is cell-based. The settings on record: 1400 W 10 μM, mevalonate 20 μM. Here is the method:
For DNA content analysis, harvested cells were centrifuged at 1,000×g for 5 min, fixed by the gradual addition of ice-cold 70% ethanol, and washed with PBS. Cells were then treated with RNase (10 μg/mL) for 30 min at 37° C., washed once with PBS, and resuspended and stained in 1 mL of 69 μmol/L propidium iodide in 38 mmol/L sodium citrate for 30 min at room temperature. The cell cycle phase distribution was determined by analytic DNA flow cytometry as described in (Vindelov L, et al. Methods Cell Biol, 33:127-37, 1990). The percentage of cells in each phase of the cell cycle was analyzed using a Modfit software (Verity Software House, Topsham, Me.).
As NO has previously been reported to exert tumor cell cycle alterations (Pervin S, et al. Natl Acad Sci USA 98:3583-3588, 2001), we investigated the cytostatic effect of statins in MCF-7 cells. MCF-7 cells were treated with simvastatin and fluvastatin for […] in the presence and absence of 1400 W (10 μM) and mevalonate (20 μM). Cell cycle progression was examined using FACScan flow cytometry analysis. […] As cell cycle progression from […] involves activations of the cell regulatory proteins, cyclins D and E, we investigated the effects of statins and iNOS inhibitor on the cell cycle proteins. […]

In data set [4] the test system is NO2-/NO3- levels in MCF-7 cells. Put plainly: Nitrite and nitrate measurements by chemiluminescence (NO analyzer). Format: cell-based. The settings on record: for effect on statin-induced NO / NO2-/NO3- levels: with simvastatin or fluvastatin (10 μM), 40 h, mevalonate 20 μM, 1400 W 10 μM, sepiapterin 50 μM, compared to statin alone. On the procedure: Briefly, following treatments, cells were washed three times with DPBS after aspirating the medium. To this, 1 ml of Hanks' balanced salt mixture containing 25 μM L-arginine was added and incubated for 30 min at 37° C. The medium was collected and centrifuged for 5 min at 5000 rpm, and 50 μl of the clear supernatant was used for nitrate and nitrite analysis. Each sample was analyzed in triplicate.

In data set [5] the test system is cyclin D1, cyclin E and p27 in MCF-7 cells. Put plainly: Cell cycle protein levels by Western analysis (cyclin D1, cyclin E, p27). Format: cell-based. The settings on record: 1400 W 10 μM or mevalonate 20 μM. On the procedure:
A (Table): The cell cycle distribution of MCF-7 cells treated with either simvastatin or fluvastatin (5-10 μM) for 40 h in the presence or 1400 W (10 μM) or mevalonate (20 μM). The cell sorting was performed by flow cytometry as described in “Materials and Methods.” B: Cells were treated with simvastatin or fluvastatin (10 μM) in the presence or absence of 1400 W (10 μM) or mevalonate (20 μM) for 40 h and cyclins D1 and E protein levels were measured by the Western analysis using the corresponding polyclonal or monoclonal antibodies. Data are representative of three separate experiments.
After treatment with statins, cells were washed with ice-cold DPBS and resuspended in 150 μl of radioimmune precipitation assay buffer (20 mM Tris-HCl, pH 7.4, 2.5 mM EDTA, 1% Triton X-100, 1% sodium deoxycholate, 1% SDS, 100 mM NaCl, 100 mM sodium fluoride) containing 1 mM sodium vanadate, 10 μg/ml aprotinin, 10 μg/ml leupeptin, and 10 μg/ml pepstatin inhibitors. Cells were homogenized by passing the suspension through a 25-gauge needle (20 strokes). The lysate was centrifuged at 750×g for 10 min at 4° C. to pellet out the nuclei. The remaining supernatant was centrifuged for 30 min at 12,000×g. Protein was determined using the Lowry method and 50 μg of the lysate was used for the Western blot analysis. […] The band was detected using the ECL method (Amersham Biosciences).

For data set [6], the system named is MCF-7 cells. Put plainly: Soft agar assay for colony formation (anchorage-independent growth). The format is cell-based. As to conditions: for visible colony formation in soft agar: MCF-7 cells, 10 μM, treated 40 h, colonies after 21 days. On the procedure: Soft Agar Assay for Colony Formation:
After cells were treated with various conditions, they were seeded in six-well plates. The plates were first covered with phenol red-free MEM containing 0.6% agar and 10% FBS. The middle layer contained cells (5×10^3) in phenol red-free MEM with 0.35% agar and 10% FBS. The top layer, consisting of the medium, was added to prevent drying of the agar in the plates. The plates were incubated for 21 days, after which the plates were stained in 0.5 ml of 0.005% crystal violet for 1 h and the cultures were inspected and photographed. The colony efficiency (CE) was determined by a count of the number of colonies greater than […] in diameter, which was calculated as the average of colonies counted at 50× magnification in five individual fields manually (Liu S, et al. Oncogene, 23:1256-62, 2004).
The long-term effects of statins and the inhibitors on the proliferation and survival of MCF-7 cells were determined using clonogenic assays (Ramanathan B, et al. Cancer Res, 65:8455-60, 2005). The extent of malignancy of cells corresponds to the attainment of anchorage-independent growth (Liu S, et al. Oncogene, 23:1256-62, 2004). MCF-7 cells were treated with simvastatin or fluvastatin in the presence or absence of either 1400 W or mevalonate or sepiapterin. In separate experiments, cells were treated with either GGTI-298 or FTI-277. At the end of the treatments, approximately 5×10^3 cells were seeded onto a soft agar to determine their clonogenic efficiency after 21 days. […] In the presence of either 1400 W or mevalonate, the colony formation was restored in statin-treated cells (FIG. 6B).

In data set [7] the test system is MCF-7 cells. The data set is described as follows: 3H-thymidine uptake (DNA synthesis / cell proliferation). As to conditions: 10-20 μM. Format: cell-based. On the procedure:
Thymidine Uptake Studies:
DNA synthesis was measured by monitoring the uptake of tritiated thymidine, [^3H]TdR (Perkin-Elmer, Boston, Mass.). Cells (5×10^5/ml) were cultured with different concentrations of simvastatin or fluvastatin (0-10 μM) in the presence or absence of mevalonate (20 μM), 1400 W, or sepiapterin. Cells were pulse-chased with [^3H]TdR [0.5 μCi (0.185 MBq)/well during the last 3 h of a 24 h culture, harvested onto glass filters with an automatic cell harvester (Cambridge Technology, Cambridge, Mass.), and counted using the LKB Betaplate scintillation counter (Wallac, Gaithersburg, Md.). All experiments were performed in triplicate and repeated three times.

In a further data set the test system is iNOS in MCF-7 cells. The data set is described as follows: iNOS mRNA (RT-PCR) and protein (Western) levels. The format is cell-based. As to conditions: MCF-7 cells, 10-20 μM, 40 h, Western analysis. Here is the method: After treatment with statins, cells were washed with ice-cold DPBS and resuspended in 150 μl of radioimmune precipitation assay buffer (20 mM Tris-HCl, pH 7.4, 2.5 mM EDTA, 1% Triton X-100, 1% sodium deoxycholate, 1% SDS, 100 mM NaCl, 100 mM sodium fluoride) containing 1 mM sodium vanadate, 10 μg/ml aprotinin, 10 μg/ml leupeptin, and 10 μg/ml pepstatin inhibitors. Cells were homogenized by passing the suspension through a 25-gauge needle (20 strokes). The lysate was centrifuged at 750×g for 10 min at 4° C. to pellet out the nuclei. The remaining supernatant was centrifuged for 30 min at 12,000×g. Protein was determined using the Lowry method and 50 μg of the lysate was used for the Western blot analysis. Proteins were resolved using the SDS-polyacrylamide gels and blotted onto nitrocellulose membranes. Membranes were washed with TBS (140 mM NaCl, 50 mM Tris-HCl, pH 7.2) containing 0.1% Tween 20 (TBST) and 5% skim milk to block the non-specific protein binding. Membranes were incubated with 1 μg/ml rabbit anti-iNOS polyclonal antibody (Abeam, Cambridge, Mass.), mouse anti-cyclin D1 antibody, mouse anti-cyclin E antibody (BD Biosciences, San Jose, Calif.) or rabbit anti-p27 antibody (Chemicon International, Temecula, Calif.) in TBST for overnight at 4° C., washed 5 times with TBST, and then incubated with goat anti-rabbit or rabbit anti-mouse IgG-horseradish peroxidase-conjugated secondary antibody (1:5,000) for 1.5 h at room temperature. The band was detected using the ECL method (Amersham Biosciences).
Following the treatments, medium was aspirated and 1 ml of TRIzol reagent (Invitrogen) was added and total RNA was extracted using the manufacturer's protocol. Five μg of RNA was used for the first strand cDNA synthesis using a first strand cDNA synthesis kit (Amersham Biosciences). […]

As for `CC(C)=CCC/C(C)=C/CC/C(C)=C/CC/C=C(\C)CC/C=C(\C)CCC=C(C)C` [squalene], the “effect on statin-induced MCF-7 cell cytotoxicity (MTT assay)” value in data set [1] (pretreatment before simvastatin or fluvastatin (10 μM), mevalonate 20 μM, 1400 W 10 μM) is listed as “did not prevent”.

In the case of `CC(=N)NCc1cccc(CN)c1` [1400 W, N-(3-aminomethyl)benzylacetamidine], the “effect on statin-induced TUNEL-positive cells (proapoptotic effect)” value (“effect … (proapoptotic effect)” for short) in the data set on MCF-7 cells [2] is given as “decrease”. In the data set with MCF-7 cells [3], the “effect on statin-induced cell cycle alterations” value is reported as “partially reversed”. Also, the “effect on statin-induced NO / NO2-/NO3- levels” value in data set [4] is “inhibited; also recorded: decreased”. In data set [5], the “effect on statin-induced decrease of cyclin D1 and cyclin E” value is listed as “restored in part”. In addition, the “colony formation in statin-treated cells in the presence of modulator” value in the data set with MCF-7 cells [6] (1400 W 10 μM or mevalonate 20 μM with statin 10 μM) is given as “restored”.

As for `COC(=O)[C@H](CC(C)C)NC(=O)c1ccc(NC[C@@H](N)CS)cc1-c1cccc2ccccc12` [GGTI-298, N-4-[2(R)-amino-3-mercaptopropyl]amino-2-naphthylbenzoyl-(L)-leucine methyl ester], the “MCF-7 cell death (MTT assay) by isoprenylation inhibitors” value in data set [1] is “induced MCF-7 cell death”. For the same compound, in the data set on MCF-7 cells [7], the “loss of MCF-7 cell proliferation (3H-thymidine uptake) by isoprenylation inhibitors” value is on record as “loss of cell proliferation”. In the data set on MCF-7 cells [6], the “visible colony formation in soft agar” value was “drastically lowered”. Moreover, the “iNOS protein levels by isoprenylation inhibitors” value in the data set on iNOS in MCF-7 cells is recorded as “dose-dependently induced”.

With `C[C@H](O)C(=O)C1=Nc2c(nc(N)[nH]c2=O)NC1` [sepiapterin], in the data set on MCF-7 cells [2], the “effect … (proapoptotic effect)” value is on record as “exacerbated”. Also, the “effect … (proapoptotic effect)” value with MCF-7 cells [2] (listed as Sepiapterin) is listed as “further augmented”. In data set [4] (MCF-7 cells), the “NO2-/NO3- levels, sepiapterin with FTI-277” value was “no effect” and the “NO2-/NO3- levels, sepiapterin with GGTI-298 compared to GGTI-298 alone” value was “significantly increased”. Also, the “NO2-/NO3- levels, sepiapterin alone” value in data set [4] (in the absence of statin) is “did not increase”. Also, the “effect on statin-induced NO / NO2-/NO3- levels” value in data set [4] is listed as “significantly increased”. The “colony growth, sepiapterin supplementation with simvastatin or fluvastatin” value in the data set on MCF-7 cells [6] (lower concentration of simvastatin or fluvastatin (5 μM), sepiapterin 50 μM) is “completely inhibited”.

With `COC(=O)[C@H](CCSC)NC(=O)c1ccc(NC[C@@H](N)CS)cc1-c1ccccc1` [FTI-277, methyl {N-[2-phenyl-4-N[2(R)-amino-3-mecaptopropylamino]benzoyl]}-methionate], the “MCF-7 cell death (MTT assay) by isoprenylation inhibitors” value in data set [1] is listed as “not”. Further, the “loss of MCF-7 cell proliferation (3H-thymidine uptake) by isoprenylation inhibitors” value with MCF-7 cells [7] was “not”. Also, in the data set with MCF-7 cells [6], the “visible colony formation in soft agar” value is “not”. Also, the “iNOS protein levels by isoprenylation inhibitors” value with iNOS in MCF-7 cells is on record as “not”.

In the case of N-nitroso-fluvastatin [NO-fluvastatin], the “potency in causing MCF-7 cell death compared to fluvastatin alone (MTT assay)” value in data set [1] (0-1 μM) was “more potent”.
